Source: patent US8481592B2, “Uses of sesquiterpene derivatives” (Kwang Dong Pharm Co., Ltd., priority 2008, dated 2013)
Structures can show the parent of a compound that is named as a salt. Marks after values point to notes of the source that are not given here.

What was measured:
C. elegans = experiment: Anti-obesity effect (fat content by Nile red staining) in C. elegans; type: in vivo, Caenorhabditis elegans; set-up: key to Fat content: A low fat content was indicated by +1; a high fat content was assigned with +4; conditions: for inhibitory effect on adipogenesis: low concentration of 1 μg/ml; for Fat content: Nile red staining
Procedure: Using a dissecting microscope (×50 magnification), C. elegans at the 4th stage (L4, the imaginal stage) was transferred to 3 ml of a cholesterol-supplemented S-medium (containing NaCl, K2HPO4, KH2PO4, cholesterol, citrate, trace metals, CaCl2 and MgSO4), and 100 μl of E. coli OP50 (OD600=0.2) liquid-cultured overnight before 1 day of experiment was added thereto. The Pterocarpus indicus fraction sample was added to the liquid media containing C. elegans, followed by rotary culture in a dark room at 16° C. and 100 rpm. The water-insoluble sample was dissolved in DMSO and added to the culture media. The final concentration of DMSO was adjusted below 1%. […] 24 hours after the sample was added to C. elegans, 30 μl of a Nile red dye at a concentration of 10 μg/ml was added (final concentration of Nile red was adjusted to 100 ng/ml) to the media, followed by continuous rotary culture for 2 days.
In order to arrest the locomotory movement of C. elegan, 20 μl of 0.3% NaN3 was dropped on a slide glass to which 100 μl of C. elegans cultured in the presence of Nile red for 2 days was added. Under a fluorescence microscope, adipocytes of C. elegans emitting red fluorescence in a dark room were micrographed and compared with the control group to thereby determine the amount of fat. A low fat content was indicated by +1, whereas a high fat content was assigned with +4. Adult (L4 stage) C. elegans immediately prior to egg-laying were used in this Example. Therefore, the eggs were hatched after sample treatment and most of adult C. elegans were killed at 3 day post-treatment. A fat content was examined in C. elegans which had newly hatched and grown.

[1] = Physical characteristics of the compounds (solubility, stability); conditions: easily dissolved in organic solvent having lower polarity than ethanol, but not water
[2] = Body weight gain and total visceral fat weight in mice fed high fat diet containing sesquiterpene compound; type: in vivo, mouse; conditions: for Body weight gain / total visceral fat weight: HFD with 0.2% compound in diet, C57BL mice, 8 weeks; for total visceral fat weight: epididymal, perirenal, mesenteric and abdominal fat
Excerpt: Obesity-inducible diet used in the present experiment was high fat diet (HFD: 40% fat calorie, 17 g Lard+3% maize oil/100 g diet) developed by the present inventors and the composition of diet containing sesquiterpene compounds was equal to that of HFD but each 8 sesquiterpene compounds with a concentration of 0.2% was included in diet [cedryl acetate-containing diet, (−)-α-cedrene-containing diet, (+)-β-cedrene-containing diet, cedrene epoxide-containing diet, methyl cedryl ether-containing diet, methyl cedryl ketone-containing diet, cedrenol-containing diet and (+)-cedrol-containing diet]. The composition of diet is described in the following Table 5.
6-old-week C57BL/63 male mice were adapted to laboratory environment during one week and divided into HFD control and 8 test groups according to randommized block design. […] Diet was supplied with water at 10-11 o'clock every morning, and intake amount of diet and body weight was measured every day and once of three days, respectively. The body weight was measure at 2 hrs after removing feed bin to block sudden change of body weight according to feed intake, and feed efficiency was calculated by dividing body weight gain by amount of total intake amount of diet during total experimental period which is from initial day supplying experimental diet to sacrificed day. After experimental animals were fasted for above 12 hrs, they were anesthetized with diethylether, and their blood, liver and visceral fat tissues (epididymal fat, perirenal fat, mesenteric fat and abdominal fat) were collected. And then, they were washed with 0.1 M phosphate-buffered saline (pH 7.4), and their weights were measured. Blood taken from abdominal aorta was centrifuged at 1,000×g for 15 min to separate plasma.

[3] = Biochemical index of blood and liver tissue in mice fed high fat diet containing sesquiterpene compound; type: in vivo, mouse; conditions: for Liver Triglyceride / IRI (insulin resistance index) / Plasma Glucose / Plasma Insulin / Plasma Total cholesterol / Plasma Triglyceride: HFD with compound in diet, 8 weeks; for IRI (insulin resistance index) / Plasma Glucose / Plasma Insulin / Plasma Total cholesterol / Plasma Triglyceride: fasted
Procedure: The composition of diet is described in the following Table 5. […] After experimental animals were fasted for above 12 hrs, they were anesthetized with diethylether, and their blood, liver and visceral fat tissues (epididymal fat, perirenal fat, mesenteric fat and abdominal fat) were collected. And then, they were washed with 0.1 M phosphate-buffered saline (pH 7.4), and their weights were measured. […] Concentration of total Plasma cholesterol, triglyceride and glucose was measured twice according to commercially available measurement kit (Bio Clinical system), respectively. Insulin concentration was measured by ELISA using mouse insulin kit (Shibayaki, Japan). […] The homogenate was mixed with 5 ml of chloroform:methanol solution (2:1, v/v), and centrifuged at 1,000×g for 10 min to separate lower phase. […] Three ml of chloroform:methanol:0.05% CaCl2 solution (3:48:47, v/v/v) were added to the resulting lower phase, and thoroughly mixed for 1 min. The mixture was centrifuged at 1,000×g for 10 min. The final lower phase was completely dried on nitrogen gas, and the dried lipid was dissolved in 1 ml of methanol to use analysis of lipid component. Triglyceride concentration in lipid extracts from liver tissues was measured according to commercially available measurement kit (Bio Clinical system) equal to that used in analysis of plasma.

Row | SMILES | Solubility [1] | inhibitory effect on adipogenesis (C. elegans) | Fat content (C. elegans; sample concentration 1 μg/ml) | Fat content (C. elegans; sample concentration 10 μg/ml) | Fat content (C. elegans; sample concentration 100 μg/ml) | Body weight gain [2] | total visceral fat weight [2] | Visceral fat weight compared to control ([2]; diet fed during 8-week) | all fasting glucose, blood insulin concentration and insulin resistance index in comparison with control ([3]; 8-week) | Liver Triglyceride [3] | IRI (insulin resistance index) [3] | Plasma Glucose [3] | Plasma Insulin [3] | Plasma Total cholesterol [3] | Plasma Triglyceride [3] | triglyceride concentration of liver tissue reduced compared to HFD ([3]; 8-week) | Plasma triglyceride concentration reduced compared to HFD ([3]; 8-week) | blood insulin concentration reduced compared to HFD ([3]; 8-week) | fasting glucose reduced compared to HFD ([3]; 8-week) | insulin resistance index reduced compared to HFD ([3]; 8-week)
1 | C=C1[C@@H](O)C[C@@]23C[C@@H]1C(C)(C)C2CC[C@H]3C (single isomer, unassigned; (+)) [(+)-8(15)-cedrene-9-ol, (+)-8(15)-Cedren-9-ol] | Fat soluble | notably inhibitory effect on adipogenesis | +2 | +1 | +2 | – | – | – | – | – | – | – | – | – | – | – | – | – | – | –
2 | C=C1C2CCC3C2[C@@H](C(C)C)CC[C@@]13C (single isomer, unassigned; (+)) [(+)-sativene] | Fat soluble | notably inhibitory effect on adipogenesis | +2 | +2 | +1 | – | – | – | – | – | – | – | – | – | – | – | – | – | – | –
3 | CC1(C)C=C[C@]23CCC[C@](C)(CCC12)C3 (single isomer, unassigned; (-)) [(−)-clovene, (−)-Clovene] | Fat soluble | notably inhibitory effect on adipogenesis | +2 | +2 | +2 | – | – | – | – | – | – | – | – | – | – | – | – | – | – | –
4 | C[C@@H]1CC[C@H]2C(C)(C)[C@H]3C[C@@]12CC[C@@]3(C)O [(+)-cedrol] | – | – | +4 | +4 | +3 | 10.9 ± 0.85 g/8 weeks | 92.4 ± 5.31 mg/g body weight | higher than that in control | prone to be decreased in comparison with control, but statistical significance was not shown | 49.1 ± 4.10 µmol/g | 1.45 ± 0.22 10^−3 pmol insulin × mmol glucose × L^−2 | 9.8 ± 0.99 mmol/L | 0.86 ± 0.07 ng/mL | 2.98 ± 0.20 mmol/L | 1.31 ± 0.10 mmol/L | – | – | – | – | –
5 | CC1=CC[C@]23C[C@H]1C(C)(C)C2CC[C@H]3C (stereo partly drawn) [(+)-α-funebrene] | Fat soluble | notably inhibitory effect on adipogenesis | +3 | +2 | +2 | – | – | – | – | – | – | – | – | – | – | – | – | – | – | –
6 | C=C1CC[C@@]23C[C@@H]1C(C)(C)C2CC[C@H]3C (stereo partly drawn) [(+)-β-cedrene] | Fat soluble | notably inhibitory effect on adipogenesis | +2 | +3 | +2 | 7.13 ± 0.89 g/8 weeks | 48.0 ± 8.27 mg/g body weight | – | – | 16.6 ± 1.28 µmol/g | 0.78 ± 0.11* 10^−3 pmol insulin × mmol glucose × L^−2 | 6.80 ± 0.41 mmol/L | 0.70 ± 0.08 ng/mL | 2.57 ± 0.19 mmol/L | 1.32 ± 0.11 mmol/L | 63% | – | – | – | –
7 | C=C1CC[C@]23C[C@H]1C(C)(C)C2CC[C@H]3C (stereo partly drawn) [(+)-β-funebrene] | Fat soluble | notably inhibitory effect on adipogenesis | +1 | +1 | +2 | – | – | – | – | – | – | – | – | – | – | – | – | – | – | –
8 | C[C@@H]1CC[C@H]2C(C)(C)[C@H]3C[C@@]12CC[C@]3(C)O [(−)-epicedrol, (−)—epicedrol] | – | notably inhibitory effect on adipogenesis | +1 | +1 | +3 | – | – | – | – | – | – | – | – | – | – | – | – | – | – | –

Further lines, with some results ahead:

Row | Solubility [1] | SMILES | inhibitory effect on adipogenesis (C. elegans) | Fat content (C. elegans; sample concentration 1 μg/ml) | Fat content (C. elegans; sample concentration 10 μg/ml) | Fat content (C. elegans; sample concentration 100 μg/ml) | Body weight gain [2] | total visceral fat weight [2] | Visceral fat weight compared to control ([2]; diet fed during 8-week) | all fasting glucose, blood insulin concentration and insulin resistance index in comparison with control ([3]; 8-week) | Liver Triglyceride [3] | IRI (insulin resistance index) [3] | Plasma Glucose [3] | Plasma Insulin [3] | Plasma Total cholesterol [3] | Plasma Triglyceride [3] | triglyceride concentration of liver tissue reduced compared to HFD ([3]; 8-week) | Plasma triglyceride concentration reduced compared to HFD ([3]; 8-week) | blood insulin concentration reduced compared to HFD ([3]; 8-week) | fasting glucose reduced compared to HFD ([3]; 8-week) | insulin resistance index reduced compared to HFD ([3]; 8-week)
9 | Fat soluble | CC1=CC[C@@]23C[C@@H]1C(C)(C)C2CC[C@H]3C (stereo partly drawn) [(−)-α-cedrene] | notably inhibitory effect on adipogenesis | +2 | +2 | +2 | 6.73 ± 1.02 g/8 weeks | 40.0 ± 4.31 mg/g body weight | – | – | 16.1 ± 0.60 µmol/g | 0.75 ± 0.13* 10^−3 pmol insulin × mmol glucose × L^−2 | 6.41 ± 0.57 mmol/L | 0.67 ± 0.04 ng/mL | 2.11 ± 0.16 mmol/L | 0.81 ± 0.15 mmol/L | 64% | 50% | – | – | –
10 | Fat soluble | CC(=O)O[C@]1(C)CC[C@@]23C[C@@H]1C(C)(C)[C@@H]2CC[C@H]3C [Cedryl acetate, cedryl acetate] | – | +4 | +3 | +2 | 8.54 ± 0.84 g/8 weeks | 46.4 ± 3.12 mg/g body weight | – | – | 23.8 ± 2.33 µmol/g | 0.44 ± 0.06* 10^−3 pmol insulin × mmol glucose × L^−2 | 4.67 ± 0.40 mmol/L | 0.49 ± 0.07 ng/mL | 2.53 ± 0.10 mmol/L | 1.12 ± 0.06 mmol/L | – | 30% | 49% | 54% | 73%
11 | Fat soluble | C[C@@H]1CC[C@H]2C(C)(C)[C@H]3C[C@@]12CC1OC13C (stereo partly drawn) [cedrene epoxide, Cedrene epoxide] | – | +4 | +3 | +2 | 12.4 ± 1.36 g/8 weeks | 65.6 ± 4.43 mg/g body weight | – | – | 27.8 ± 2.41 µmol/g | 0.94 ± 0.14* 10^−3 pmol insulin × mmol glucose × L^−2 | 7.34 ± 0.68 mmol/L | 0.71 ± 0.04 ng/mL | 2.81 ± 0.18 mmol/L | 1.32 ± 0.08 mmol/L | – | – | – | – | –
12 | Fat soluble | CC1=CCC23CC1C(C)(CO)C2CCC3C (stereo not drawn) [cedrenol, Cedrenol] | notably inhibitory effect on adipogenesis | +2 | +1 | +1 | 9.51 ± 1.47 g/8 weeks | 57.8 ± 4.02 mg/g body weight | – | – | 25.0 ± 1.81 µmol/g | 0.71 ± 0.09* 10^−3 pmol insulin × mmol glucose × L^−2 | 7.24 ± 0.56 mmol/L | 0.58 ± 0.07 ng/mL | 2.42 ± 0.22 mmol/L | 1.20 ± 0.10 mmol/L | – | – | – | – | –
13 | Fat soluble | C[C@@H]1CC[C@H]2C(C)(C)[C@H]3C[C@@]12CC[C@@]3(C)OC=O [cedryl formate, Cedryl formate] | notably inhibitory effect on adipogenesis | +3 | +1 | +1 | – | – | – | – | – | – | – | – | – | – | – | – | – | – | –
